# Laboratory results as given in patent US9873705B2, “Vinylogous thioester compounds and methods of use” (THE TRUSTEES OF DARTMOUTH COLLEGE, priority 2015, dated 2018).
# Entries after “also recorded” stand apart in the source; their conditions may differ.
# Experiments:
# [1] = tested on: ira2Δ yeast (NF1 deficient yeast); assay: Yeast growth inhibition (dose response) assay, OD600; type: cell-based, Saccharomyces cerevisiae; details: isogenic yeast system; 0 to 100 μM, 18 h
# Source text: A high-throughput screen was used to identify compounds that are synthetically lethal with NF1 loss (14). A synthetic lethal interaction occurs when loss of two genes due to genetic deletion or pharmacologic inhibition is nonlethal independently but is lethal in combination (FIG. 1) (17). The first gene lost is NF1, and the loss of the second gene is mimicked through treatment with the screened compounds. The screen used Saccharomyces cerevisiae lacking IRA2 (ira2Δ), a yeast homologue of NF1, as a model for NF1 loss. ira2Δ yeast have increased RAS-GTP, which in turn activates MAPK and PKA pathways that mimic the pathways that are increased in NF1 deficient Schwann cells (18). […]
# Candidate compounds were screened in ira2Δ yeast cells to identify target compounds synthetically lethal to NF1 loss. Growth inhibition of yeast was measured using the optical density of yeast cultures treated with compounds compared to DMSO control (14).
# Growth inhibition assays as described above were performed on ira2Δ yeast cells and NF1-deficient glioblastoma cells. […] Following 18 h treatment, OD600 was measured using a THERMOmax (Molecular Devices) microplate reader and SOFTmax Pro 4.3 LS software. […] AlamarBlue fluorescence was determined with a Spectramax M2 (Molecular Devices) plate reader at an excitation of 544 nm and an emission of 590 nm using SoftMax Pro 3 software. […]
# [2] = tested on: mitochondria of U87-MG cells; assay: Mitotracker Red CMXRos mitochondrial phenotype imaging; type: cell-based, human; details: 24 h, 2 or 4 μM
# Description: To examine whether there was a change in the mitochondrial phenotype of cells following Y102 treatment, Mitotracker Red CMXRos, a fluorescent dye whose accumulation is dependent upon membrane […], was used.
# The data for FIG. 7 was obtained as follows: U87-MG cells were plated on poly-L-lysine (Sigma) coated coverslips at a concentration of 50,000 cells/well in a 24-well plate and allowed to adhere overnight. Cells were treated for 24 h with DMSO, 2 μM Y102, 4 μM Y102, or 50 μM HCQ. 30 minutes prior to collection, cells were stained with 100 nM Mitotracker Red CMXRos (Cell Signaling Technology, red) in media at 37° C. Cells were fixed for 10 minutes with 4% methanol-free paraformaldehyde, permeabilized for 15 minutes with 0.5% Triton X-100, blocked with immunofluorescence buffer (2%[v/v] goat serum, 0.2%[v/v] Triton X-100 and 0.05%[w/v] sodium azide in PBS) for 1 h, and stained for 1 h at room temperature for the autophagy marker p62 using anti-p62/SQSTM-1 D-3 (Santa Cruz, 1:500, 1 h at room temperature). Following 3 washes with PBST, cells were stained with goat anti-mouse 488 (Jackson ImmunoResearch Laboratories) secondary antibody for 1 h (green; not shown). After an additional two washes with PBST, cell nuclei were stained with 0.33 μg/mL DAPI (Molecular Probes) for 5 minutes (blue). Coverslips were mounted on glass slides with ProLong Gold antifade medium. […]
# [3] = tested on: U-87-MG; assay: Glioblastoma cell growth, Alamar Blue, 3 or 7 days; type: cell-based, human; details: 3.9×10^-8 M to 2×10^-5 M
# Description: (§1) 1000 cells in logarithmic phase were seeded per well (96 well plates) on day zero. The cells were treated for either 3 (red) or 7 (blue) days at a concentration range between 3.9×10^-8 M and 2×10^-5 M. Growth was assayed by the Alamar Blue method.
# [4] = tested on: U251-MG; assay: Glioblastoma cell growth, Alamar Blue, 3 or 7 days; type: cell-based, human; details: 3.9×10^-8 M to 2×10^-5 M
# Description: as §1
compound,measurement,setting,value
Cn1cnnc1S/C=C/C(=O)c1ccc(F)cc1 [Y102],sensitivity of NF1 deficient yeast (growth),[1],selectively sensitive
same,mitochondrial phenotype (Mitotracker Red CMXRos),[2],altered mitochondrial phenotype; also recorded: perinuclear clustering of the mitochondria
same,mitochondrial phenotype (Mitotracker Red CMXRos),[2]; listed as Y1022,perinuclear accumulation of the mitochondria
same,sensitivity of U-87-MG (growth),[3],sensitive
same,sensitivity of U251-MG (growth),[4],sensitive
